Reference: PMC5011961, “In vitro antimicrobial activities of animal-used quinoxaline 1,4-di-N-oxides against mycobacteria, mycoplasma and fungi” (BMC Veterinary Research, 2016)
Converted amounts (≈) assume the structure as drawn. Where two headings read alike, the source gives them in different places.

Columns and labels:
Epidermophyton floccosum = experiment: Antifungal assay, macrobroth 2-fold serial dilution MIC
Trichophyton rubrum = experiment: as above
Microsporum canis = experiment: as above
Candida parapsilosis = experiment: as above; conditions: Lodderomyces parapsilosis
Aspergillus fumigatus = experiment: as above
Candida tropicalis = experiment: as above
Candida albicans = experiment: as above
Cryptococcus neoformans = experiment: as above
[1] = system: M. tuberculosis H37Rv ATCC 27294; experiment: Microdilution alamar blue assay (MABA); assay type: cell-based, Mycobacterium tuberculosis
M. bovis ATCC 19210 = experiment: microbe, parasite or virus in culture; assay type: cell-based, Mycobacterium bovis
PK-15 cells = experiment: Cytotoxicity assay (MTT); conditions: for TC50: PK-15, 72 h, MTT, mean ± SD, n = 4; for MNTC: PK-15, maximum non-cytotoxic concentration (90 % cell viability)
M. tuberculosis complex = experiment: Combination susceptibility assay (checkerboard method), overall statements; assay type: cell-based; conditions: combined with rifampicin
PPV = experiment: Antiviral assay (CPE/MTT; adsorption inhibition, infection inhibition, virucidal); assay type: cell-based, porcine parvovirus; design: key to IC50: “--” represent not detected owing to the low inhibition ratio; conditions: PPV, mean±SD of four experiments
IBDV = experiment: as above; assay type: cell-based, infectious bursal disease virus; design: key to IC50: “--” represent not detected owing to the low inhibition ratio; conditions: IBDV, mean±SD of four experiments
[2] = system: M. tuberculosis H37Ra ATCC 25177; experiment: Microdilution alamar blue assay (MABA)
Description: Briefly, each of the above Mycobacterium strains was cultured at 37 °C in Middlebrook 7H9 broth supplemented with 0.2 % glycerol and 10 % Oleic Acid-Albumin-Dextrose-Catalase (Sigma, St Louis, MO, USA) until logarithmic growth was reached. About 6 × 10^6 CFU/mL inoculum of Mycobacterium strain was then added to the two fold serially diluted drug samples. The final concentration of DMSO in all assays was 2.5 % or less and this dilution also served as solvent control. The samples were assayed in triplicate. All tests were carried out in sterile flat bottom 96-well microplates. Each microplate was incubated for 5 days at 37 °C in a sealed plastic CO2-permeable bag. After 7 days of incubation, 32 μL of a mixture of freshly prepared Alamar Blue solution and 20 % sterile Tween-80 at 1:1 (v/v) were added to the growth-control well. The microplates were incubated at 37 °C for 24 h. […] A well-defined pink color was interpreted as positive bacterial growth, whereas a blue color indicated an absence of growth.

DF-1 cells = experiment: Cytotoxicity assay (MTT); conditions: for TC50: DF-1, 72 h, MTT, mean ± SD, n = 4; for MNTC: DF-1, maximum non-cytotoxic concentration (90 % cell viability)
M. gallisepticum = experiment: Antimycoplasma assay, MIC in microtiter plates; conditions: Mycoplasmoides gallisepticum
Description: (§1) Briefly, 96-well microtiter Sensititre plates containing stabilized and freeze-dried antimicrobials were used. Three wells on each plate were set as antimicrobial free growth control. Freshly thawed mycoplasma isolates with known titers were diluted in liquid medium until the number of organisms reached 10^4 color changing units/mL. 50 μL of the diluted culture was transferred into each well of the Sensititre plates. […] The plates were sealed using an adhesive foil and incubated at 36 °C for 14 days. The growth of M. hyopneumoniae was observed daily when the color of the medium changed from red to yellow (phenol red indicator), and the initial and final MICs were recorded.

M. hyopneumoniae = experiment: Antimycoplasma assay, MIC in microtiter plates; conditions: Mesomycoplasma hyopneumoniae
Description: as §1

Mycoplasma gallisepticum = experiment: Combination susceptibility assay (checkerboard method); assay type: cell-based; conditions: combined with tetracyclines (tetracycline and doxycycline), M. gallisepticum
PRRSV = experiment: Antiviral assay (CPE/MTT; adsorption inhibition, infection inhibition, virucidal); assay type: cell-based, porcine reproductive and respiratory syndrome virus; design: key to IC50: “--”represent not detected owing to the low inhibition ratio; conditions: PRRSV, mean±SD of four experiments
Marc-145 cells = experiment: Cytotoxicity assay (MTT); conditions: for TC50: Marc-145, 72 h, MTT, mean ± SD, n = 4; for MNTC: Marc-145, maximum non-cytotoxic concentration (90 % cell viability)
mycoplasma = experiment: Antimycoplasma assay, overall statements; assay type: cell-based; conditions: range over Mycoplasma gallisepticum and Mycoplasma hyopneumoniae strains
[3] = A. fumigatus 3.5301, deep fungi
[4] = A. fumigatus 3.5352, deep fungi
[5] = Candida tropicalis, C. tropicalis 2.2735, deep fungi
[6] = Candida tropicalis, C. tropicalis 7349, deep fungi
[7] = Mycobacterium tuberculosis, read-out: MIC
[8] = Mycobacterium tuberculosis variant bovis, ATCC19210
[9] = M. gallisepticum BG44T (10^4ccu/mL)
[10] = M. gallisepticum MG-HS (10^6ccu/mL)
[11] = M. gallisepticum PG31 (10^8 ccu/mL)

| Compound | MIC (Epidermophyton floccosum) [µg/mL] | MIC (Epidermophyton floccosum; CBS566094) [µg/mL] | MIC (Trichophyton rubrum) [µg/mL] | MIC (Trichophyton rubrum; ATCC4438) [µg/mL] | MIC (Microsporum canis) [µg/mL] | MIC (Microsporum canis; CBS113480) [µg/mL] | MIC (Candida parapsilosis) [µg/mL] | MIC (Aspergillus fumigatus; [3]) [µg/mL] | MIC (Aspergillus fumigatus; [4]) [µg/mL] | MIC (Candida albicans; C. albicans 2.4122, deep fungi) [µg/mL] | MIC (Candida albicans; C. albicans 90028, deep fungi) [µg/mL] | MIC (Cryptococcus neoformans) [µg/mL] | MIC [1, 7] [µg/mL] | MIC (M. bovis ATCC 19210; [8]) [µg/mL] | MIC [2] [µg/mL] | MIC (M. gallisepticum; [9]) [µg/mL] | MIC (M. gallisepticum; [10]) [µg/mL] | MIC (M. gallisepticum; [11]) [µg/mL] | MIC (M. hyopneumoniae) [µg/mL] | further results |
| --- | --- | --- | --- | --- | --- | --- | --- | --- | --- | --- | --- | --- | --- | --- | --- | --- | --- | --- | --- | --- |
| C[C@@H]1[C@H](O)[C@@H](C)/C=C/C=C/C=C/C=C/C=C/C=C/C=C/[C@H](O[C@@H]2O[C@H](C)[C@@H](O)[C@H](N)[C@@H]2O)C[C@@H]2O[C@](O)(C[C@@H](O)C[C@@H](O)[C@H](O)CC[C@@H](O)C[C@@H](O)CC(=O)O[C@H]1C)C[C@H](O)[C@H]2C(=O)O [AMB, amphotericin B] | 0.5 (≈ 0.541 µM) | 0.5 (≈ 0.541 µM) | 1 (≈ 1.08 µM) | 1 (≈ 1.08 µM) | 1 (≈ 1.08 µM) | 0.5 (≈ 0.541 µM) | 1 (≈ 1.08 µM) | 0.5 (≈ 0.541 µM) | 0.5 (≈ 0.541 µM) | 2 (≈ 2.16 µM) | 1 (≈ 1.08 µM) | 0.5 (≈ 0.541 µM) |  |  |  |  |  |  |  | MIC (Candida tropicalis; [5]): 2 µg/mL (≈ 2.16 µM); MIC (Candida tropicalis; [6]): 2 µg/mL (≈ 2.16 µM) |
| NCC[C@H](O)C(=O)N[C@@H]1C[C@H](N)[C@@H](O[C@H]2O[C@H](CN)[C@@H](O)[C@H](O)[C@H]2O)[C@H](O)[C@H]1O[C@H]1O[C@H](CO)[C@@H](O)[C@H](N)[C@H]1O [Amikacin] |  |  |  |  |  |  |  |  |  |  |  |  | 3.2 (≈ 5.46 µM) | 1.6 (≈ 2.73 µM) |  |  |  |  |  |  |
| N#CCC(=O)N/N=C/c1c[n+]([O-])c2ccccc2[n+]1[O-] [CYA, cyadox] | 32 (≈ 118 µM) | 32 (≈ 118 µM) | 32 (≈ 118 µM) | 32 (≈ 118 µM) | 32 (≈ 118 µM) | 16 (≈ 59 µM) | 32 (≈ 118 µM) | 64 (≈ 236 µM) | 32 (≈ 118 µM) | 32 (≈ 118 µM) | 64 (≈ 236 µM) | 16 (≈ 59 µM) | 4 (≈ 14.7 µM) | 8 (≈ 29.5 µM) | 64 (≈ 236 µM) | 32 (≈ 118 µM) | 16 (≈ 59 µM) | 16 (≈ 59 µM) | 16 (≈ 59 µM) | TC50 (PK-15 cells): 15.31 ± 1.23 µg/mL (≈ 56.4 µM); MNTC (PK-15 cells): 1.2 µg/mL; FIC (M. tuberculosis complex): 0.75; MIC (Candida tropicalis; [5]): 32 µg/mL (≈ 118 µM); MIC (Candida tropicalis; [6]): 32 µg/mL (≈ 118 µM); IC50 (PPV; Inactivation): --; IC50 (PPV; Prevention): --; IC50 (PPV; Treatment): --; IC50 (IBDV; Inactivation): --; IC50 (IBDV; Prevention): --; IC50 (IBDV; Treatment): --; TC50 (DF-1 cells): 17.26 ± 1.27 µg/mL (≈ 63.6 µM); MNTC (DF-1 cells): 1.0 µg/mL; Combined effect (Mycoplasma gallisepticum): additive (0.5 to 1, additive); IC50 (PRRSV; Inactivation): --; IC50 (PRRSV; Prevention): --; IC50 (PRRSV; Treatment): --; TC50 (Marc-145 cells): 16.92 ± 1.28 µg/mL (≈ 62.4 µM); MNTC (Marc-145 cells): 1.56 µg/mL |
| CCN1CCN(c2cc3c(cc2F)c(=O)c(C(=O)O)cn3C2CC2)CC1 [Enrofloxacin, enrofloxacin] |  |  |  |  |  |  |  |  |  |  |  |  |  |  |  | 0.013 (≈ 0.0362 µM) | 0.05 (≈ 0.139 µM) | 0.025 (≈ 0.0696 µM) | 0.025 (≈ 0.0696 µM) |  |
| CC[C@@H](CO)NCCN[C@@H](CC)CO [Ethambutol, ethambutol] |  |  |  |  |  |  |  |  |  |  |  |  | 0.025 (≈ 0.122 µM) | 0.025 (≈ 0.122 µM) |  |  |  |  |  |  |
| NNC(=O)c1ccncc1 [Isoniazid, isoniazid] |  |  |  |  |  |  |  |  |  |  |  |  | 0.025 (≈ 0.182 µM) | 0.025 (≈ 0.182 µM) | 16 (≈ 117 µM) |  |  |  |  |  |
| CC(=O)N1CCN(c2ccc(OCC3COC(Cn4ccnc4)(c4ccc(Cl)cc4Cl)O3)cc2)CC1 (stereo not drawn) [KCZ, ketoconazole] | 0.25 (≈ 0.47 µM) | 0.25 (≈ 0.47 µM) | 0.5 (≈ 0.941 µM) | 0.5 (≈ 0.941 µM) | 0.5 (≈ 0.941 µM) | 0.25 (≈ 0.47 µM) | 0.125 (≈ 0.235 µM) | 0.25 (≈ 0.47 µM) | 0.5 (≈ 0.941 µM) | 0.5 (≈ 0.941 µM) | 0.25 (≈ 0.47 µM) | 0.25 (≈ 0.47 µM) |  |  |  |  |  |  |  | MIC (Candida tropicalis; C. tropicalis 2.2735, deep fungi): 0.5 µg/mL (≈ 0.941 µM); MIC (Candida tropicalis; Candida tropicalis): 0.5 µg/mL (≈ 0.941 µM) |
| NC[C@H]1O[C@H](O[C@H]2[C@H](O)[C@@H](O[C@H]3O[C@H](CO)[C@@H](O)[C@H](N)[C@H]3O)[C@H](N)C[C@@H]2N)[C@H](O)[C@@H](O)[C@@H]1O [Kanamycin] |  |  |  |  |  |  |  |  |  |  |  |  |  |  |  |  |  |  |  | MIC [1]: 0.2 µg/mL (≈ 0.413 µM); MIC (M. bovis ATCC 19210; M. bovis ATCC 19210): 0.2 µg/mL (≈ 0.413 µM) |
| NC(=O)c1cnccn1 [Pyrazinamide, pyrazinamide] |  |  |  |  |  |  |  |  |  |  |  |  | 0.8 (≈ 6.5 µM) | 0.8 (≈ 6.5 µM) |  |  |  |  |  |  |
| Cc1c(C(=O)/C=C/c2ccccc2)[n+]([O-])c2ccccc2[n+]1[O-] [QCT, quinocetone] | 32 (≈ 104 µM) | 32 (≈ 104 µM) | 32 (≈ 104 µM) | 32 (≈ 104 µM) | 16 (≈ 52.2 µM) | 8 (≈ 26.1 µM) | 64 (≈ 209 µM) | 64 (≈ 209 µM) | 64 (≈ 209 µM) | > 64 | > 64 | 64 (≈ 209 µM) | 4 (≈ 13.1 µM) | 4 (≈ 13.1 µM) | 64 (≈ 209 µM) | 8 (≈ 26.1 µM) | 16 (≈ 52.2 µM) | 16 (≈ 52.2 µM) | 16 (≈ 52.2 µM) | TC50 (PK-15 cells): 2.38 ± 0.27 µg/mL (≈ 7.77 µM); MNTC (PK-15 cells): 0.2 µg/mL; FIC (M. tuberculosis complex): 0.75; MIC (Candida tropicalis; [5]): > 64 µg/mL; MIC (Candida tropicalis; [6]): > 64 µg/mL; IC50 (PPV; Inactivation): --; IC50 (PPV; Prevention): --; IC50 (PPV; Treatment): --; IC50 (IBDV; Inactivation): --; IC50 (IBDV; Prevention): --; IC50 (IBDV; Treatment): --; TC50 (DF-1 cells): 9.89 ± 1.08 µg/mL (≈ 32.3 µM); MNTC (DF-1 cells): 0.25 µg/mL; Combined effect (Mycoplasma gallisepticum): additive (0.5 to 1, additive); IC50 (PRRSV; Inactivation): --; IC50 (PRRSV; Prevention): --; IC50 (PRRSV; Treatment): --; MIC (mycoplasma): 8 to 16 µg/mL (≈ 26.1 to 52.2 µM); TC50 (Marc-145 cells): 8.90 ± 1.05 µg/mL (≈ 29.1 µM); MNTC (Marc-145 cells): 0.39 µg/mL |
| CO[C@H]1/C=C/O[C@@]2(C)Oc3c(C)c(O)c4c(O)c(c(/C=N/N5CCN(C)CC5)c(O)c4c3C2=O)NC(=O)/C(C)=C\C=C\[C@H](C)[C@H](O)[C@@H](C)[C@@H](O)[C@@H](C)[C@H](OC(C)=O)[C@@H]1C [Rifampicin, rifampicin] |  |  |  |  |  |  |  |  |  |  |  |  | 0.05 (≈ 0.0608 µM) | 0.025 (≈ 0.0304 µM) | 1.6 (≈ 1.94 µM) |  |  |  |  |  |
| [H]/N=C(/N)N[C@H]1[C@H](O)[C@@H](O)[C@H](O[C@@H]2O[C@@H](C)[C@](O)(C=O)[C@H]2O[C@@H]2O[C@@H](CO)[C@H](O)[C@@H](O)[C@@H]2NC)[C@@H](N/C(N)=N\[H])[C@@H]1O [Streptomycin, streptomycin] |  |  |  |  |  |  |  |  |  |  |  |  | 0.025 (≈ 0.043 µM) | 0.013 (≈ 0.0224 µM) |  |  |  |  |  |  |
| CC[C@H]1OC(=O)C[C@@H](O)[C@H](C)[C@@H](O[C@@H]2O[C@H](C)[C@@H](O[C@H]3C[C@@](C)(O)[C@@H](O)[C@H](C)O3)[C@H](N(C)C)[C@H]2O)[C@@H](CC=O)C[C@@H](C)C(=O)/C=C/C(C)=C/[C@@H]1CO[C@@H]1O[C@H](C)[C@@H](O)[C@@H](OC)[C@H]1OC [Tylosin, tylosin] |  |  |  |  |  |  |  |  |  |  |  |  |  |  |  | 0.05 (≈ 0.0546 µM) | 0.025 (≈ 0.0273 µM) | 0.025 (≈ 0.0273 µM) | 0.05 (≈ 0.0546 µM) |  |
